Data set [1] has as its system curly tail (ct/ct) embryos. Kind of data set: Frequency of spina bifida, tail flexion defects and straight tails in curly tail embryos after maternal supplementation. Format: in vivo, mouse. The following applies: for frequency of spina bifida compared with controls: maternal i.p. 20 mg/kg each reagent daily E7.5-10.5, embryos scored E11.5-13.5; for frequency of spina bifida compared with controls / frequency of straight-tailed (unaffected) embryos compared with controls: z-test; for frequency of straight-tailed (unaffected) embryos compared with controls: all embryos. The source says: The curly tail (ct) mouse is considered a useful model for NTDs owing to a number of characteristics that resemble the corresponding defects in humans. These include a multifactorial etiology (with effects of both genetic and environmental factors), location of spina bifida lesions at the lumbosacral level, the presence of elevated alpha-fetoprotein in the amniotic fluid and a female excess among exencephalic embryos. […] The closure defects in ct/ct embryos are a mechanical consequence of excessive ventral curvature of the caudal region of the embryo. This, in turn, results from a dorso-ventral growth imbalance caused by a diminished cellular proliferation rate in the hindgut endoderm. In addition to spina bifida, cranial NTDs (exencephaly) also occur at low frequency among curly tail embryos (approximately 5%), but the cellular basis for these defects is not known. Curly tail mice were maintained as a closed random-bred colony as described in Van […] et al (Anat Embryol 2001 203: 225-237). […] Any resorptions were recorded. Crown-rump length was measured using an eyepiece graticule. Statistical analysis was carried out using SigmaStat (version 3.5; Systat Software Inc). Proportions were compared by z-test. Comparisons of mean values were made by […] or by One Way ANOVA with pairwise analysis by Holm-Sidak test. Embryos removed from pregnant females at E11.5-13.5 were scored for the outcome of low spinal neurulation as: normal (ST, straight tail), tail flexion defect (CT, curled tail), or open spina bifida which was always associated with a tail flexion defect (SB plus CT). Tail flexion defects arise when closure of the neural tube is delayed but does ultimately occur.

Another data set has as its system curly tail mice. The following applies: female, mouse, in vivo. On the procedure: Experimental litters were generated by overnight mating with the day of finding a copulation plug designated embryonic day (E) 0.5. Maternal supplementation was performed daily from E7.5-10.5.
Treatments were: control (water only), thymidine+adenine, thymidine+hypoxanthine, thymidine+GMP, thymidine only, adenine only (all reagents from Sigma). GMP was used instead of guanine owing to solubility considerations in preparing solutions for injection. Animal studies were carried out under regulations of the Animals (Scientific Procedures) Act 1986 of the UK Government, and in according with guidance issued by the Medical Research Council, UK in Responsibility in the Use of Animals for Medical Research (July 1993).
Collection of Embryos Litters were dissected from the uterus, at E11.5-13.5, in Dulbecco's Modified Eagle's Medium containing 10% fetal calf serum and assessed for presence of neural tube defects (NTDs) under a light microscope. Any resorptions were recorded. Crown-rump length was measured using an eyepiece graticule.
In order to evaluate potential effects of treatment on litter size or embryonic viability, the number of embryos in each litter was recorded together with the presence of dead or resorbed embryos.

The next data set has as its system curly tail embryos. Kind of data set: Frequency of exencephaly (cranial NTDs) among curly tail embryos after maternal supplementation. The following applies: maternal i.p. 20 mg/kg each reagent daily E7.5-10.5; controls 6.8%. Type of data set: in vivo, mouse. The method, then: The closure defects in ct/ct embryos are a mechanical consequence of excessive ventral curvature of the caudal region of the embryo. This, in turn, results from a dorso-ventral growth imbalance caused by a diminished cellular proliferation rate in the hindgut endoderm. In addition to spina bifida, cranial NTDs (exencephaly) also occur at low frequency among curly tail embryos (approximately 5%), but the cellular basis for these defects is not known. […] Any resorptions were recorded. Crown-rump length was measured using an eyepiece graticule. The frequency of exencephaly (cranial NTDs) among genetically predisposed curly tail embryos was also assessed. The frequency of exencephaly was 6.8% among embryos from control litters. There was a trend towards diminished frequency of exencephaly among embryos treated with thymidine and adenine, thymidine and GMP, or thymidine only, compared with controls (3.0%, 2.5% and 2.7% respectively, see FIG. 4).

In a further data set the test system is genomic DNA. Kind of data set: Incorporation of tritiated nucleotide precursors into genomic DNA in embryo culture. The arrangement: species or system mouse. The following applies: embryos cultured E9.5-10.5, mean ± SEM, n = 3. On the procedure: Embryos were explanted at E9.5 and cultured for 24 hours in rat serum as described previously (Cockroft, In: Copp […], editors. Postimplantation Mammalian Embryos: A Practical Approach. Oxford: […] DNA concentration was determined by NanoDrop.

Another data set has as its system neural tube defects. The following applies: cited from earlier work.
The next data set has as its system ct/ct embryos. The following applies: supplementation; cited from earlier work.

We go through 5 compounds from patent US20150352137A1, “THYMIDINE FOR PREVENTING NEURAL TUBE DEFECTS” (priority 2012, published 2015).

With `Nc1ncnc2nc[nH]c12` [Ade only, adenine], the “frequency of spina bifida compared with controls” value in data set [1] is listed as “no effect”. In the data set with curly tail mice, this compound yielded a Mean litter size of 7.5 ± 0.7 and a Resorption per litter of 0.8 ± 0.3.
For the compound `Cc1cn([C@H]2C[C@H](O)[C@@H](CO)O2)c(=O)[nH]c1=O` [Thy only, thymidine], the “frequency of straight-tailed (unaffected) embryos compared with controls” value in data set [1] (listed as Thy) is “significantly higher”; in data set [1] (listed as thymidine only), “higher frequency”. Moreover, the “proportion of unaffected, straight tail embryos within litter compared with controls” value in data set [1] (litter-by-litter analysis, One Way ANOVA) is on record as “not statistically significant”. In addition, the “frequency of spina bifida compared with controls” value in data set [1] (20 mg/kg) is reported as “trend towards reduced spina bifida frequency”; in data set [1] (listed as thymidine alone, 20 mg/kg), “trend towards reduced frequency”. The compound further had a frequency of exencephaly in the data set with curly tail embryos of 2.7%. In the data set on curly tail mice, this compound yielded a Mean litter size of 7.4 ± 0.8. In the data set on curly tail mice, the Resorption per litter stood at 0.9 ± 0.4.
As to `Nc1ncnc2nc[nH]c12` [[^3H]-adenine], the “[^3H] incorporation into genomic DNA” value with genomic DNA (37,000 Bq/ml, 0.036 nmol/ml) was determined as 40.0 ± 6.6 cpm/μg; with genomic DNA (74,000 Bq/ml, 0.07 nmol/ml) it was 82.8 ± 6.7 cpm/μg.
On to `Cc1cn([C@H]2C[C@H](O)[C@@H](CO)O2)c(=O)[nH]c1=O` [[^3H]-thymidine], for which the “[^3H] incorporation into genomic DNA” value with genomic DNA (37,000 Bq/ml, 0.07 nmol/ml) is reported as 898.4 ± 98.0 cpm/μg.
As to `Nc1nc2ncc(CNc3ccc(C(=O)N[C@@H](CCC(=O)O)C(=O)O)cc3)nc2c(=O)[nH]1` [folic acid], the “reduction of NTD recurrence risk” value in the data set on neural tube defects (5 mg/day, women with a previous affected pregnancy) was ~70%. In addition, the “reduction in the prevalence of NTDs” value in the data set on neural tube defects (USA, fortification of bread flour) was 26%. Besides, the “NTDs not preventable by maternal treatment” value in the data set with neural tube defects (human, in vivo) was 30-50%. For the same compound, in the data set with neural tube defects (randomised clinical trials, administered early in pregnancy), the NTD recurrences prevented result is recorded as “up to 70%”. In the data set on ct/ct embryos, the “prevention of NTDs in ct/ct embryos” value was “not preventable”.
